pIC50: −log10 of the molar value.
Columns and labels:
NLuc::LmxCLK1 = NLuc::LmxCLK1 (Leishmania mexicana, UniProt E9AMP2); test: In-cell BRET target engagement in intracellular amastigotes expressing NLuc::LmxCLK1; format: cell-based
Description: L. mexicana (strain MNYC/BZ/62/M379) promastigotes were cultivated in medium 199 (M199) (Earle’s Salts - Gibco) supplemented with 10% (v/v) heat-inactivated fetal calf serum (HIFCS – Cultilab) and 1% Penicillin/Streptomycin solution (Sigma-Aldrich) at 26 °C. Phenotypic drug response assays in null mutant and point-mutation mutant lines were performed in HOMEM supplemented with 10% (v/v) heat-inactivated fetal calf serum (HIFCS – Gibco). THP-1 monocytes were differentiated in adherent macrophages with 50 ng of PMA for 72 h at 37 °C and 5% CO2 before infection with stationary phase promastigotes (ratio 10 promastigotes:1 macrophage) for 6 h, followed by washing to remove non-internalized Leishmania. Infected macrophages were incubated at 34 °C and 5% CO2 for 48 h in RPMI (Gibco) supplemented with 10% HIFCS and 1% Penicillin/Streptomycin solution.
in vitro BRET used purified NLuc-LmxCLK1 in Kinase Buffer (50 mM HEPES, 1 mM EGTA, 10 mM MgCl^2, 2 mM DTT and 0.01% Tween-20) aliquoted into 96-well plates (Greiner #655904). In cell BRET assays used engineered L. mexicana (promastigotes or intramacrophage amastigotes) expressing NLuc-LmxCLK1 in cell media aliquoted into 96-well plates (Greiner, #655083). For tracer titration experiments, BRET probes were serially diluted from 100% DMSO stocks – first in 100% DMSO to 100x final assay concentration, and then in Tracer Dilution Buffer (TDB - 12.5 mM HEPES, pH 7.5; 31.25% PEG 400) to 20x the final assay concentration. Serially diluted probes (5 µL) were added to 85 µL of cells in culture media or 85 µL of purified protein. Final well volumes were adjusted to 100 µL with sterile Opti-MEM™ I Reduced Serum Medium (Thermo-Scientific) – for wells containing cells; or Kinase Buffer - for wells containing purified protein. For tracer displacement assays, samples were prepared as above, but final volume was brought to 100 µL by addition of vehicle or serially-diluted test compounds. Final DMSO concentration in these assays was 1%. Plates were incubated for 30 min at 25 °C (purified protein and promastigotes) or 34 °C (intramacrophage amastigotes), and 50 µL of Promega cocktail containing furimazine and NLuc extracellular inhibitor (catalog #N2161) were added to each well. Light emissions at 460+10 nm (BRET donor) and at 610+20 nm (BRET acceptor) were sequentially recorded (integration time = 0.5 s, gain = 3600) using a luminometer (BMG LABTECH Clariostar or Biotek Synergy HT). BRET values are reported in milli-BRET (mBRET) units (mBU), obtained by dividing the acceptor luminescence by the donor luminescence and multiplying the result by a factor of 1,000. BRET values were converted to blank-corrected probe occupancies (%) according to equation [1]: (1) Probeoccupancy(%)=X−Z/Y−Z×100 where X = mBRET value in the presence of the test compound and the probe, Y = mBRET value in the presence of probe only, and Z = mBRET value in the absence of probe and test compound.

LmxCLK1 = target: T1, LmxCLK1 (Leishmania mexicana, UniProt E9AMP2); test: Intact mass LC-MS for covalent adduct formation; format: binding; conditions: 2 h incubation at room temperature, inhibitor:protein 3:1
T1 sequence (E9AMP2 1-422): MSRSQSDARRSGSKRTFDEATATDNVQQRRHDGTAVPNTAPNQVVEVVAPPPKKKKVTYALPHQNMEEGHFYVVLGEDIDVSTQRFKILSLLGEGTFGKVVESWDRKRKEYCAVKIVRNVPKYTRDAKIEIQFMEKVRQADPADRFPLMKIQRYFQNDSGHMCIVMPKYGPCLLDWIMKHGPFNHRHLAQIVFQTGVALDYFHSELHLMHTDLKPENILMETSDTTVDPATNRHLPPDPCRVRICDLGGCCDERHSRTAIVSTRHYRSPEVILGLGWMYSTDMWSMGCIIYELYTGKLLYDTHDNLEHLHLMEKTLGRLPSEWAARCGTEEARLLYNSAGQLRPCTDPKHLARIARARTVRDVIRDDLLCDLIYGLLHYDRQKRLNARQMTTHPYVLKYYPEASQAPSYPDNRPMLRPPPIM
Description: Samples were analyzed by LC-ESI-MS in a XEVO G2 Sx Q-ToF (Waters) at LACTAD-UNICAMP, Brazil. […]
where background is the background fluorescence obtained in the absence of enzyme (blank).
To determine IC50 values, the background-corrected HTRF ratio was plotted as a function of test compound concentration, and the data were fitted to the sigmoidal dose-response (variable slope) equation [2] available in GraphPad Prism (v. 9.1.0):
Signal ratio (665/620) = Plateau + Plateau)(* − Plateau’())($ [2] […]
where Hill = Hill slope describing the steepness of the curve and x = test compound concentration.
To obtain normalized enzymatic activity we used the background corrected HTRF ratio of enzymatic […]
and 0% enzyme activity, respectively.
To establish the contribution of compound pre-incubation to the IC50 assay, we pre-incubated WZ8040 with LmxCLK1 for 5, 10, 15 and 30 minutes at room temperature, prior to starting the phosphorylation reaction by adding ATP and the peptide substrate. The enzymatic reactions were carried following the procedures described above.
For fitting of kinact and KI values from endpoint pre-incubation IC50 data, we used the equation [3], first described by Krippendorff and colleagues:7 […]
IC"&(t) = k. […]
(CQMED clone ID LmxCLK1-cb001) and the two covalent inhibitors WZ8040 and WZ3146. […] Samples were analyzed by LC-ESI-MS in a XEVO G2 Sx Q-ToF (Waters) at LACTAD-UNICAMP, Brazil. […]

Structure (SMILES)	pIC50 (NLuc::LmxCLK1)	Lower potency in intracellular amastigotes (NLuc::LmxCLK1; tracer displacement, versus promastigotes)	Covalent adduct formation with purified LmxCLK1 (LmxCLK1)
Cc1ccc(C(=O)Nc2ccc(CN3CCN(C)CC3)c(C(F)(F)F)c2)cc1C#Cc1cnc2[nH]ncc2c1 [GZD824]	4.89	~ 3 fold	
C=CC(=O)Nc1cccc(Oc2nc(Nc3ccc(N4CCN(C)CC4)cc3)ncc2Cl)c1 [WZ3146]			formation of covalent adducts
C=CC(=O)Nc1cccc(Sc2nc(Nc3ccc(N4CCN(C)CC4)cc3)ncc2Cl)c1 [WZ8040]	5.15		formation of covalent adducts
